Measured values as given in patent publication US20120202794A1 (priority 2011, published 2012).

Legend:
HCV Replicon 1b = test: HCV inhibition assay, HCV replicon 1b (Clone A or ET-lunet cells; RT-PCR or luciferase reporter); type: cell-based; conditions: Hepatitis C virus, 96 h, HCV replicon 1b; 4 days incubation; read-out: Replicon 1b potency EC90
How it was run: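 Inhibition read either as luciferase signal (ET replicon) or as HCV 5′-NTR RNA by RT-PCR relative to rRNA, % = (1−2^−ΔΔCt)×100, against DMSO controls, giving EC50 and EC90. Cells: Clone A or ET-lunet, seeded 1500 or 3000/well, exposed 4 days at 37 °C, 5% CO2, 0.5% DMSO.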

[1] = Cell cytotoxicity assay (MTS), CC90 as reported in Table 1, cell line not stated; type: cell-based; conditions: human; MTS assay; 8 days incubation; cell line not given
How it was run: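 MTS read-out (490 nm, 2 h dye step) after 8-day exposure at 37° C. Huh7, HepG2, BxPC3 were seeded at 2×10^3 and CEM at 5×10^3 cells/well, with compound serially diluted from 100 μM. CC90 comes from comparison with untreated control wells.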

Structure (SMILES) | EC90 (HCV Replicon 1b) | CC90 at 8 days [1]
CC(C)[C@H]1C(=O)N[C@@H](c2ccccc2)CN1C(=O)[C@@H]1C[C@H]1c1ccccc1 [Compound 402, (3S,6S)-3-isopropyl-6-phenyl-4-((1R,2R)-2-phenylcyclopropanecarbonyl)piperazin-2-one] | 6630 nM | > 10 µM
CC(C)[C@H]1C(=O)N[C@@H](c2ccccc2)CN1C(=O)c1noc(-c2ccc(F)cc2)n1 [Compound 403, (3S,6S)-4-(5-(4-fluorophenyl)-1,2,4-oxadiazole-3-carbonyl)-3-isopropyl-6-phenyl-piperazin-2-ono] | 270 nM | > 10 µM
CC(C)[C@H]1C(=O)N[C@@H](c2ccccc2)CN1C(=O)c1nc(-c2ccc(F)cc2)no1 [Compound 404, (3S,6S)-4-(3-(4-fluorophenyl)-1,2,4-oxadiazole-5-carbonyl)-3-isopropyl-6-phenyl-piperazin-2-one] | 1580 nM | > 10 µM
CC(C)C[C@H]1CN(C(=O)c2noc(-c3ccc(Cl)cc3)n2)[C@@H](CC(C)C)C(=O)N1 [Compound 405, (3S,6S)-4-(5-(4-chlorophenyl)-1,2,4-oxadiazole-3-carbonyl)-3,6-diisobutylpiperazin-2-one] | 320 nM | > 10 µM
CC(C)C[C@H]1C(=O)N[C@@H](c2ccccc2)CN1C(=O)c1noc(-c2ccc(Cl)cc2)n1 [Compound 406, (3S,6S)-4-(5-(4-chlorophenyl)-1,2,4-oxadiazole-3-carbonyl)-3-isobutyl-6-phenyl-piperazin-2-one] | 230 nM | > 10 µM
C=CC[C@H]1C(=O)N[C@@H](c2ccccc2)CN1C(=O)c1cc(-c2ccc(F)cc2)on1 [Compound 407, (3S,6S)-3-allyl-4-(5-(4-fluorophenyl)isoxazole-3-carbonyl)-6-phenylpiperazin-2-one] | 740 nM | > 10 µM
C=CC[C@H]1C(=O)N[C@@H](CCC)CN1C(=O)c1cc(-c2ccc(F)cc2)on1 [Compound 409, (3S,6S)-3-allyl-4-(5-(4-fluorophenyl)isoxazole-3-carbonyl)-6-propylpiperazin-2-one] | 1880 nM | > 10 µM
CC(C)C[C@H]1CCN(C(=O)c2cc(-c3ccc(F)cc3)on2)[C@@H](CC(C)C)C(=O)N1 [Compound 411, (3S,7S)-4-(5-(4-fluorophenyl)isoxazole-3-carbonyl)-3,7-diisobutyl-1,4-diazepan-2-one] | > 10000 nM | > 10 µM
CC(C)CC1CNC(=O)[C@H](CC(C)C)N(C(=O)c2cc(-c3ccc(F)cc3)on2)C1 (stereo partly drawn) [Compound 413, (3S)-4-(5-(4-fluorophenyl)isoxazole-3-carbonyl)-3,6-diisobutyl-1,4-diazepan-2-one] | > 10000 nM | > 10 µM
CC(C)C[C@H]1C(=O)N[C@H](c2ccccc2)CCN1C(=O)c1cc(-c2ccc(F)cc2)on1 [Compound 415, (3S,7S)-4-(5-(4-fluorophenyl)isoxazole-3-carbonyl)-3-isobutyl-7-phenyl-1,4-diazepan-2-one] | > 10000 nM | > 10 µM
CC(C)C[C@H]1C(=O)N[C@H](c2ccccc2)CCN1C(=O)[C@@H]1C[C@H]1c1ccccc1 [Compound 417, (3S,75)-3-isobutyl-7-phenyl-4-((1R,2R)-2-phenylcyclopropanecarbonyl)-1,4-diazepan-2-one] | 7770 nM | > 10 µM
CC(C)C[C@H]1C(=O)NC[C@H](c2ccccc2)CN1C(=O)[C@@H]1C[C@H]1c1ccccc1 [Compound 418, (3S,6S)-3-isobutyl-6-phenyl-4-((1R,2R)-2-phenylcyclopropanecarbonyl)-1,4-diazepan-2-one] | > 10000 nM | > 10 µM
CC(C)C[C@H]1C(=O)NC[C@H](c2ccccc2)CN1C(=O)c1cc(-c2ccc(F)cc2)on1 [Compound 420, (3S,6S)-3-isobutyl-6-phenyl-4-(5-(4-fluorophenyl)isoxazole-3-carbonyl)-1,4-diazepan-2-one] | > 10000 nM | > 10 µM
CC(C)C[C@H]1CN(C(=O)[C@H]2C[C@@H]2c2ccc(F)cc2F)[C@@H](CC(C)C)C(=O)N1 [Compound 421, (3S,6S)-4-[(1S,2S)-2-(2,4-Difluoro-phenyl)-cyclopropanecarbonyl]-3,6-diisobutyl-piperazin-2-one] | > 10000 nM | > 10 µM
C/C=C/[C@H]1CN(C(=O)[C@@H]2C[C@H]2c2ccccc2)[C@@H](CC(C)C)C(=O)N1 [Compound 422, (3S,6S)-3-isobutyl-4-((1R,2R)-2-phenylcyclopropanecarbonyl)-6-((E)-prop-1-en-1-yl)piperazin-2-one] | 2100 nM | > 10 µM
CC(C)C[C@H]1C(=O)N[C@H](c2cccs2)CN1C(=O)c1cc(-c2ccc(F)cc2)on1 [Compound 428, (3S,6S)-4-(5-(4-fluorophenyl)isoxazole-3-carbonyl)-3-isobutyl-6-(thiophen-2-yl)piperazin-2-one] | > 10000 nM | > 10 µM
CC(C)C[C@H]1C(=O)N[C@@H](c2cccs2)CN1C(=O)c1nc(-c2ccc(F)cc2)no1 [Compound 431, (3S,6R)-4-(3-(4-fluorophenyl)-1,2,4-oxadiazole-5-carbonyl)-3-isobutyl-6-(thiophen-2-yl)piperazin-2-one] | 24 nM | > 10 µM
CC(C)C[C@H]1C(=O)N[C@@H](c2cccs2)CN1C(=O)/C=C/c1ccc(F)cc1F [Compound 434, (3S,6R)-4-((E)-3-(2,4-difluorophenyl)acryloyl)-3-isobutyl-6-(thiophen-2-yl)pipera-zin-2-one] | 48 nM | > 10 µM
CC(C)C[C@H]1C(=O)N[C@@H](c2cccs2)CN1Cc1cc(-c2ccc(F)cc2)on1 [Compound 435, (3S,6R)-4-((5-(4-fluorophenyl)isoxazol-3-yl)methyl)-3-isobutyl-6-(thiophen-2-yl)piperazin-2-one] | 260 nM | > 10 µM
Cc1ccsc1[C@H]1CN(C(=O)[C@@H]2C[C@H]2c2ccc(F)cc2)[C@@H](CC(C)C)C(=O)N1 [Compound 438, (3S,6R)-4-((1R,2R)-2-(4-fluorophenyl)cyclopropanecarbonyl)-3-isobutyl-6-(3-methylthiophen-2-yl)piperazin-2-one] | > 10000 nM | > 10 µM
Cc1ccsc1[C@H]1CN(C(=O)c2noc(-c3ccc(F)cc3)n2)[C@@H](CC(C)C)C(=O)N1 [Compound 441, (3S,6R)-4-(5-(4-fluorophenyl)-1,2,4-oxadiazole-3-carbonyl)-3-isobutyl-6-(3-methylthiophen-2-yl)piperazin-2-one] | > 10000 nM | > 10 µM
CC(C)C[C@H]1C(=O)N[C@@H](C2CCC2)CN1C(=O)c1cc(-c2ccc(F)cc2)on1 [Compound 443, (3S,6S)-6-cyclobutyl-4-(5-(4-fluorophenyl)isoxazole-3-carbonyl)-3-isobutylpiperazin-2-one] | 740 nM | > 10 µM
C/C=C/[C@H]1CN(C(=O)c2cc(-c3ccc(F)cc3)no2)[C@@H](CC(C)C)C(=O)N1 [Compound 447, (3S,6S)-4-(3-(4-fluorophenyl)isoxazole-5-carbonyl)-3-isobutyl-6-((E)-prop-1-en-1-yl)piperazin-2-one] | 140 nM | > 10 µM
C/C=C/[C@H]1CN(C(=O)c2noc(-c3ccc(F)cc3)n2)[C@@H](CC(C)C)C(=O)N1 [Compound 448, (3S,6S)-4-(5-(4-fluorophenyl)-1,2,4-oxadiazole-3-carbonyl)-3-isobutyl-6-((E)-prop-1-en-1-yl)piperazin-2-one] | 110 nM | > 10 µM
C/C=C/[C@H]1CN(C(=O)/C=C/c2ccc(F)cc2F)[C@@H](CC(C)C)C(=O)N1 [Compound 449, (3S,6S)-4-((E)-3-(2,4-difluorophenyl)acryloyl)-3-isobutyl-6-((E)-prop-1-en-1-yl)piperazin-2-one] | 1190 nM | > 10 µM
CC(C)C[C@H]1C(=O)N[C@@H](c2ccsc2)CN1C(=O)c1cc(-c2ccc(F)cc2)no1 [Compound 450, (3S,6S)-4-(3-(4-fluorophenyl)isoxazole-5-carbonyl)-3-isobutyl-6-(thiophen-3-yl)piperazin-2-one] | 59 nM | > 10 µM
CC(C)C[C@H]1C(=O)N[C@@H](c2ccsc2)CN1C(=O)/C=C/c1ccc(F)cc1F [Compound 451, (3S,6S)-4-((E)-3-(2,4-difluorophenyl)acryloyl)-3-isobutyl-6-(thiophen-3-yl)piperazin-2-one] | 125 nM | > 10 µM
C/C=C/[C@H]1CN(C(=O)[C@@H]2C[C@H]2c2ccc(F)cc2)[C@@H](CC(C)C)C(=O)N1 [Compound 452, (3S,6S)-4-((1R,2R)-2-(4-fluorophenyl)cyclopropanecarbonyl)-3-isobutyl-6-((E)-prop-1-en-1-yl)piperazin-2-one] | 48 nM | > 10 µM
Cc1ccc([C@H]2CN(C(=O)c3cc(-c4ccc(F)cc4)on3)[C@@H](CC(C)C)C(=O)N2)s1 [Compound 453, (3S,6R)-4-(5-(4-fluorophenyl)isoxazole-3-carbonyl)-3-isobutyl-6-(5-methylthiophen-2-yl)piperazin-2-one] | 680 nM | > 10 µM
CC(C)C[C@H]1C(=O)NC(C2CCOCC2)CN1C(=O)c1cc(-c2ccc(F)cc2)on1 (stereo partly drawn) [Compound 456, (3S)-4-(5-(4-fluorophenyl)isoxazole-3-carbonyl)-3-isobutyl-6-(tetrahydro-2H-pyran-4-yl)piperazin-2-one] | 194 nM | > 10 µM
